From patent US20110294836A1, “ARYL GPR119 AGONISTS AND USES THEREOF” (METABOLEX, INC., priority 2008, published 2011)

Target: T1, GPR119 (Homo sapiens, UniProt Q8TDV5)
T1 construct: expressed in transfected cells
T1 sequence (Q8TDV5 1-335): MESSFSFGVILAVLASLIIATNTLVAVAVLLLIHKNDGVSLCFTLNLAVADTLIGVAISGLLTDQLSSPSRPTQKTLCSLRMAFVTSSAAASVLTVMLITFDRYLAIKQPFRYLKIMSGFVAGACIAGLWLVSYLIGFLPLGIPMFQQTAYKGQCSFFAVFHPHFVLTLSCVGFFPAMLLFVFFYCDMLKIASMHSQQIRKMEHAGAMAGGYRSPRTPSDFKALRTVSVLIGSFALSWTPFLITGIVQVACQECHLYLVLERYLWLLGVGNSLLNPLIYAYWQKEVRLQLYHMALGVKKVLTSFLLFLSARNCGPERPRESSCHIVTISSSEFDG
Assay: Stimulation of cAMP in CHO cell line stably expressing GPR119 (HTRF cAMP assay)
Format: cell-based
Conditions: GPR119 stably expressing CHO cells, 30 minutes, relative to maximal activity (100%) of 5-Ethyl-2-{4-[4-(4-tetrazol-1-yl-phenoxymethyl)-thiazol-2-yl]-piperidin-1-yl}-pyrimidine
Experimental: This assay was developed using a stable cell line expressing GPR119, generated as follows. GPR119 (co-pending, co-owned patent application U.S. Ser. No. 11/964,461) was cloned into Gateway pDEST 40vector (Invitrogen), using the Gateway cloning system (invitrogen) according to the manufacturer's instructions. A stable cell line was generated by transfecting a 10 cm plate of CHO cells (source) with Bug of this construct using Transit-CHO transfection kit (Minis). CHO cells were plated the day prior to transfection at a density of 3,000,000 cells/plate. Clones were selected using the antibiotic G418 at 500 ug/ml. 23 clones were picked and assayed for the expression of the receptor by measuring changes in intracellular cAMP levels in response to a known GPR119 agonist.
To measure cAMP activity in response to GPR119 agonist, the clones were plated in 96 well plates at 17500 cells per well. On the day after plating, cells were incubated with the GPR119 agonist at 10 μM for 30 minutes in Ham's F12 Media (Gibco) with 0.04% DMSO. cAMP was measured using the cAMP dynamic kit from Cis Bio (Bedford, Mass.) according to the manufacturer's instructions. Briefly, cells were lysed, and cAMP levels determined by competitive immunoassay using D2 labeled cAMP, and europium cryptate tagged anti cAMP antibody. When in close proximity, the D2 and europium cryptate undergo fluorescence resonance energy transfer (FRET), which is measured as a fluorescence ratio (665 nm/620 nm). Unlabelled cAMP in the cell lysate competed with the D2 labeled cAMP for the europium crypate labeled antibody. The resulting decrease in FRET signal corresponded to intracellular cAMP levels. Fluorescence was read on a BMG Labtech PHERAstar, software version 1.50.
The clone with the greatest response to GPR119 agonist was selected for the screening assay.
Compounds were dissolved in 100% DMSO to a concentration of […] to provide stock solutions. To determine activity against GPR119, compounds were incubated with GPR119 stably expressing cells (described above), at 6-8 concentrations ranging from 0.00003 to 10 micromolar, in 96 well plates, in 50 ul of Ham's F12 media for 30 minutes. Cells were plated at 17500 cells per well 1 day before running the assay. All compounds were also screened against the parental CHO cells. cAMP was measured using the cAMP dynamic kit from Cis Bio (Bedford, Mass.), according to the manufacturer's instructions. Briefly, cells were lysed and cAMP levels determined by competitive immunoassay using D2 labeled cAMP, and europium cryptate tagged anti cAMP antibody. When in close proximity, the D2 and europium cryptate undergo fluorescence resonance energy transfer (FRET), which is measured as a fluorescence ratio (665 nm/620 nm). Unlabelled cAMP in the cell lysate competed with the D2 labeled cAMP for the europium crypate labeled antibody. The resulting decrease in FRET signal corresponded to intracellular cAMP levels.
To determine percent activity for a tested compound, the FRET signal value obtained at a particular concentration are compared to the Maximal FRET signal value obtained for 5-Ethyl-2-{4-[4-(4-tetrazol-1-yl-phenoxymethyl)-thiazol-2-yl]-piperidin-1-yl}-pyrimidine. The maximal activity of 5-Ethyl-2-{4-[4-(4-tetrazol-1-yl-phenoxymethyl)-thiazol-2-yl]-piperidin-1-yl}-pyrimidine is designated as 100% activity. Typically, the concentration of 5-Ethyl-2-{4-[4-(4-tetrazol-1-yl-phenoxymethyl)-thiazol-2-yl]-piperidin-1-yl}-pyrimidine in the assay was approximately 0.1 μM. The synthesis of 5-Ethyl-2-{4-[4-(4-tetrazol-1-yl-phenoxymethyl)-thiazol-2-yl]-piperidin-1-yl}-pyrimidine is disclosed in co-owned pending U.S. patent application Ser. No. 11/964,461, herein incorporated by reference. Activities of compounds in Table 1 below are expressed as % activity at 3 μM compound compared to the maximal activity of 5-Ethyl-2-{4-[4-(4-tetrazol-1-yl-phenoxymethyl)-thiazol-2-yl]-piperidin-1-yl}-pyrimidine at 3 μM.

Row | Structure (SMILES) | % Activity at 3 μM Compound
1 | Fc1cc(-n2cnnn2)ccc1OCc1cccc(C2CCN(c3ncc(C(F)(F)F)cn3)CC2)n1 [Example 6, 2-(4-(6-((2-fluoro-4-(1H-tetrazol-1-yl)phenoxy)methyl)pyridin-2-yl)piperidin-1-yl)-5-(trifluoromethyl)pyrimidine] | 63%
2 | CC(C)c1noc(C(=O)N2CCC(c3cccc(COc4ccc(S(C)(=O)=O)cc4F)n3)CC2)n1 [Example 13, (4-(6-((2-fluoro-4-(methylsulfonyl)phenoxy)methyl)pyridin-2-yl)piperidin-1-yl)(3-isopropyl-1,2,4-oxadiazol-5-yl)methanone] | 33%
3 | CC(C)(C)OC(=O)N1CCC(c2cccc(OCc3ccc(S(C)(=O)=O)cc3)c2)CC1 [Example 9, tert-Butyl 4-(3-(4-(methylsulfonyl)benzyloxy)phenyl)piperidine-1-carboxylate] | 61%
4 | CCc1cnc(N2CCC(c3cccc(COc4ccc(-n5cnnn5)cc4F)n3)CC2)nc1 [Example 5, 5-ethyl-2-(4-(6-((2-fluoro-4-(1H-tetrazol-1-yl)phenoxy)methyl)pyridin-2-yl)piperidin-1-yl)pyrimidine] | 73%
5 | CCc1cnc(N2CCC(c3cccc(OCc4ccc(S(C)(=O)=O)cc4)c3)CC2)nc1 [Example 10, 5-ethyl-2-(4-(3-(4-(methylsulfonyl)benzyloxy)phenyl)piperidin-1-yl)pyrimidine] | 59%

Now from value to compound:

Row | % Activity at 3 μM Compound | Structure (SMILES)
6 | 61% | CC(C)(C)OC(=O)N1CCC(c2cccc(COc3ccc(-n4cnnn4)cc3F)n2)CC1 [Example 4, tert-Butyl 4-(6-((2-fluoro-4-(1H-tetrazol-1-yl)phenoxy)methyl)pyridin-2-yl)piperidine-1-carboxylate]
7 | 59% | CC(C)(C)OC(=O)N1CCC(c2cccc(COc3ccc(S(C)(=O)=O)cc3F)n2)CC1 [Example 2, tert-Butyl 4-(6-((2-fluoro-4-(methylsulfonyl)phenoxy)methyl)pyridin-2-yl)piperidine-1-carboxylate]
8 | 70% | CC(C)(C)OC(=O)N1CCC(c2nccc(COc3ccc(-n4cnnn4)cc3F)n2)CC1 [Example 7, tert-Butyl 4-(4-((2-fluoro-4-(1H-tetrazol-1-yl)phenoxy)methyl)pyrimidin-2-yl)piperidine-1-carboxylate]
9 | 73% | CC(C)(C)OC(=O)N1CCC(c2cc(COc3ccc(-n4cnnn4)cc3F)ccn2)CC1 [Example 14, tert-Butyl 4-(4-((2-fluoro-4-(1H-tetrazol-1-yl)phenoxy)methyl)pyridin-2-yl)piperidine-1-carboxylate]
